This is an account of results in US8546095B2, “Methods for determination of calcineurin activity and uses in predicting therapeutic outcomes” (Emory University, priority 2007, dated 2013).

Entries after “also recorded” stand apart in the source; their conditions may differ.

Data set [1] relates to calcineurin. Put plainly: Fluorimetric calcineurin assay in cultured primary renal fibroblasts.
Description: FIG. 16A: Cultured renal fibroblasts were treated with a variety of stimuli including arginine vasopressin (AVP), dexamethasone, and phorbol myristate acetate (PMA) to induce calcineurin activity. In addition, some cells were pre-treated with calcineurin inhibitors prior to the addition of PMA. Cells were lysed according to previously established methods and then calcineurin activity was determined. Data shown is the mean+/−SEM of triplicate samples compared to a standard curve. […] Tissues were lysed according to previously established methods and calcineurin activity determined. Data shown are the mean+/−SEM of triplicate samples compared to a standard curve.
When the absorbance values obtained were compared to a standard curve of recombinant calcineurin run simultaneously, a determination of calcineurin activity in each condition can be made.
The target of the next data set is T1, recombinant calcineurin (Homo sapiens, UniProt Q08209).
T1 construct: purchased Calbiochem (San Diego, Calif.)
Put plainly: Fluorimetric calcineurin assay with recombinant calcineurin and standard controls. The data set is classed as biochemical. The settings on record: 0.2 ng recombinant calcineurin, ANOVA. The procedure:
Reactions using 0.2 ng of recombinant calcineurin along with standard controls for calcineurin activity, including heat inactivation of the recombinant enzyme, addition of an autoinhibitory peptide, absence of calcium, and chelation of calcium with EGTA were investigated.
Recombinant calcineurin was from Calbiochem (San Diego, Calif.), and all other chemicals were obtained from Sigma (St Louis, Mo.). The RII peptide, Fluoresceinyl-[…]frican-AmericanE, and its phosphorylated analog (Fluoresceinyl-[…]pSVAfrican-AmericanE where pS=L-phosphoserine) were synthesized by Fmoc-based solid-phase peptide synthesis using model Liberty microwave-assisted peptide synthesizer (CEM Corporation, Matthews, N.C.). The peptides were purified to apparent homogeneity by reversed-phase HPLC and their masses were confirmed by mass spectrometry. Peptides were diluted in: Tris 50 mM, 100 mM NaCl, 0.5 mM DTT, and 0.1 mg/ml bovine serum albumen to a final concentration of 30 ng/ml. Reaction buffer consisted of 0.1 mg/ml BSA, 35 mM Tris pH 7.5, 25 mM NaCl, 2.0 mM MgCl2, 270 μM DTT, 500 μM EDTA, 419 nM Okadaic acid (in 0.63% ethanol), 25 mM CaCl2. Titanium oxide plates were pre-incubated with a binding buffer consisting of 0.1% acetic acid in 10% acetonitrile. […]

Data set [2] concerns calcineurin. Put plainly: Fluorimetric calcineurin assay in isolated PBMCs (PMA or anti-CD3 stimulation, in vitro calcineurin inhibitors). Format: cell-based, human. The procedure: It was also shown that the fold change in calcineurin activity in response to anti-CD3 was sensitive to tacrolimus inhibition. Thus, PBMCs from control subjects were incubated with increasing amounts of tacrolimus before the anti-CD3 stimulation and the calcineurin activity was then measured.
It was further determined whether in vitro addition of calcineurin inhibitors could further inhibit calcineurin activity in samples from transplant subjects.
(i) Collection of samples. Heparinized blood can be obtained by routine phlebotomy and PBMC isolated and frozen in 10% DMSO. Samples will be thawed and viability confirmed prior to treatment.
(ii) Treatment of T cells. Three parameters of calcineurin activity: 1) base-line levels of the enzyme; 2) the increase in calcineurin in response to general stimuli; and, 3) the response of calcineurin to T cell receptor specific activation.
PBMCs were thawed, viable cells counted and then separated into aliquots of about 2×10^5 cells. Based on preliminary experiments, samples were treated with anti-CD3 (Muromonab, 10 μg/ml) antibodies for 15 mins at 37° C. Based on preliminary dose and time curves, PMA was added to aliquots for 5 mins. Control samples were included with either no treatment or adjuvant-only (DMSO). These manipulations yielded base-line activity, maximum non-specific activation, and TCR-stimulated activity.
(iii) 20 μl diluted peptide substrate, 20 μl of reaction buffer, and 20 μl of sample were loaded into individual wells of a 96-well plate and incubated at 30° C. for 10 minutes. During the reaction time, a 96-well plate with titanium oxide-coated wells was prepared by adding 50 μl binding buffer (0.1% acetic acid in 10% acetonitrile) per well. After the incubation period, reactions were transferred into prepared titanium oxide-coated wells following by gentle shaking for 5 minutes. The contents of each well were then removed to a white 96-well plate preloaded with 20 μl of 3N ammonium hydroxide.

For data set [3] the following is noted: human, in vivo. The procedure: Stimulation of calcineurin activity was also determined for caucasian and African-American transplant patients. […] Trough blood levels of FK506 for both caucasian and African-American transplant patients were obtained at the time of T cell isolation.
The test system of data set [4] is calcineurin. Put plainly: Radiometric calcineurin assay, basal activity in isolated CD3+/4+ T cells treated in vitro. Format: cell-based, human. The note with it: for inhibition of basal calcineurin activity: 5 ng/ml. The protocol:
(§1) 40 mLs of heparinized blood was collected from the study participants. T cells were then isolated using the Prepacyte SC reagent (BioE WBP2000 St. Paul Minn.) antibody negative selection and Vitalyse (BioE KI-135) treated to eliminate remaining erythrocytes. Cells were pelleted by centrifugation, washed with 1× phosphate-buffered saline, and resuspended in RPMI 1640 containing penicillin/streptomycin antibiotics, 10% fetal calf serum, 2 mM 1-glutamine, 25 mM glucose, and 1 mM sodium pyruvate.
(§2) Calcineurin activity was determined using an in vitro assay as described in Fruman et al, Methods in Enzymology 9, 146-154 (1996) and Lea et al., J Am Soc Nephrol 13, 1750-1756 (2002), both of which are incorporated herein by reference in their entireties. Following treatment, isolated lymphocytes were pelleted and then re-suspended in calcineurin buffer ([…], 250 μM KCl, 10 mg/ml BSA, 5 mg/ml DTT, pH 7.5). Cells were then lysed by three cycles of freeze-thawing in liquid nitrogen and a 37° C. water bath. The concentration of harvested proteins was determined by the BCA method (Pierce Biotechnology, Rockford, Ill.) and then […] of sample was incubated with equal volumes of calcineurin reaction buffer (100 nM calmodulin, 0.1 mM CaCl, 25 μgs calyculin, 3 μg cold RII peptide) and 30 γ^32P[ATP]-labeled RII peptide substrate.
(§3) The reaction was allowed to proceed for 10 minutes, and then 10 mgs/ml charcoal/TCA solution was added to each sample to stop the reaction. Finally, samples were passed through millipore filtration buckets, scintillation fluid added, and the amount of released phosphates read in an automated counter. Reactions were performed in triplicate and final data for subjects were calculated as the mean of triplicate samples minus control reactions to normalize for background.
To ensure that calcineurin activity was measured in a uniform population of cells, experiments were performed in isolated lymphocytes that were enriched for CD3^+/4^+ T cells using erythrocyte lysis, gradient centrifugation, and Prepacyte SC reagent (BioE, St. Paul Minn.).
First, T cells were isolated from control subjects and were then treated in vitro with vehicle (DMSO) or 5 ng/ml tacrolimus for 15 minutes.

For data set [5], the system named is calcineurin. Put plainly: Radiometric calcineurin assay in isolated T cells after T cell receptor stimulation with anti-CD3/anti-CD28 antibodies, with or without inhibitor pre-treatment. The note with it: for effect of pre-treatment on anti-CD3/anti-CD28-stimulated calcineurin activity (words): control T cells, tacrolimus/FK506 5 ng/ml, cyclosporine A printed as 500 ng/ml, 5 μg/ml or 5 mg/ml. The data set is classed as cell-based, human. The procedure: as §1, §2, §3
T cell isolates were stimulated for 15 minutes with multiple agents including calcium ionophore, phorbal myristate […] (PMA), and anti-CD3/CD28 antibodies. […] Next, T cells were pre-treated for 30 minutes with cyclosporine (5 mg/ml) or FK506 (5 ng/ml) and then CD3/CD28-mediated stimulation was measured.

With `NC(=O)CC[C@@H]1NC(=O)[C@H](Cc2ccccc2)NC(=O)[C@H](Cc2ccc(O)cc2)NC(=O)[C@@H](N)CSSC[C@@H](C(=O)N2CCC[C@H]2C(=O)N[C@@H](CCCN=C(N)N)C(=O)NCC(N)=O)NC(=O)[C@H](CC(N)=O)NC1=O` [Arginine vasopressin (AVP), arginine vasopressin], in the data set on calcineurin [1], the “stimulation of calcineurin activity” value is reported as “significantly stimulated calcineurin activity”.
Consider `O=C(O)CN(CCOCCOCCN(CC(=O)O)CC(=O)O)CC(=O)O` [EGTA], for which the “effect on dephosphorylation by recombinant calcineurin” value at recombinant calcineurin is “significantly reduced”.
For the compound `CCCCCCCCCCCCCC(=O)O[C@@H]1[C@@H](C)[C@@]2(O)[C@@H](C=C(CO)C[C@]3(O)C(=O)C(C)=C[C@@H]23)[C@@H]2C(C)(C)[C@]12OC(C)=O` [PMA, phorbol myristate acetate], the “stimulation of calcineurin activity” value is “significantly stimulated calcineurin activity” in the data set on calcineurin [1], “stimulated calcineurin activity in control cells” in the data set with calcineurin [2] (control PBMCs) and “not in the transplant recipient-derived PBMC samples” in the data set on calcineurin [2] (transplant recipient-derived PBMCs).
For `C=CC[C@@H]1/C=C(\C)C[C@H](C)C[C@H](OC)[C@H]2O[C@@](O)(C(=O)C(=O)N3CCCC[C@H]3C(=O)O[C@H](/C(C)=C/[C@@H]3CC[C@@H](O)[C@H](OC)C3)[C@H](C)[C@@H](O)CC1=O)[C@H](C)C[C@@H]2OC` [tacrolimus], in data set [3], the mean plasma level was found to be 11.4 ng/mL. Further, the “effect of pre-treatment on PMA-stimulated calcineurin activity” value in the data set on calcineurin [1] was “blocked stimulation by PMA”. Also, the “effect on basal calcineurin activity” value with calcineurin [4] (control T cells (N=81), 5.0 ng/ml in vitro, p<0.001) was “significantly decreased calcineurin activity”. For the same compound, the “calcineurin activity after in vitro tacrolimus” value in the data set on calcineurin [4] (control subjects' T cells, 5 ng/ml for 15 minutes, vehicle (DMSO) 913±6) came to 662±6 fmole/μg protein/min. The “inhibition of basal calcineurin activity” value in the data set on calcineurin [4] (female control subjects) was determined as 30±4%; in the data set with calcineurin [4] (male control subjects) it was 27±4%. Also, the “effect on fold change in calcineurin activity with anti-CD3 stimulation” value in the data set on calcineurin [2] (control PBMCs incubated with increasing amounts before anti-CD3 stimulation) is given as “inhibited by tacrolimus in a dose-dependent fashion; also recorded: inhibited in control PBMCs in a dose-responsive manner”. The “effect of pre-treatment on anti-CD3/CD28-stimulated calcineurin activity” value is on record as “neither cyclosporine A nor FK506 significantly reduced calcineurin activity; also recorded: neither cyclosporine nor FK506 pre-treatment inhibited calcineurin activity” with calcineurin [5] (African-American control subjects, listed as FK506) and “inhibited” in the data set with calcineurin [5] (caucasian control subjects). The “effect of pre-treatment on anti-CD3/anti-CD28-stimulated calcineurin activity (words)” value with calcineurin [5] was “blocked the CD3/CD28 stimulation; also recorded: blocked the rise in calcineurin activity; also recorded: effective at blocking the induction”; with calcineurin [5] (listed as FK506), “significantly reduced CD3/CD28-mediated calcineurin activity; also recorded: blocked stimulation”.
On to “anti-CD3: anti-CD3 (Muromonab, 10 μg/ml) antibodies for TCR-specific activation without co-stimulation”, for which the “stimulation of calcineurin activity” value in the data set on calcineurin [2] (control PBMCs) is “observed only in control PBMCs”.
